From patent US20170305936A1, “SOLID STATE FORMS OF CRISABOROLE” (Pliva Hrvatska d.o.o., priority 2016, published 2017)

Assays:
Format in all cases: physicochemical
[1] = Stability at high humidity levels
Experimental: Moreover, Form I is stable at high humidity levels (e.g. room temperature at 100% RH for 5-7 days), including after milling procedure (e.g. feeding pressure: 6.5 bar; grinding pressure: 6 bar; rotation speed: 300 rpm).

[2] = Chemical stability on storage (impurity profile, HPLC)
Experimental: HPLC analysis was performed on instrument Agilent 1290, with experimental conditions being set as follows: Samples of Crisaborole form I were stored for 2 weeks at 25° C. 2-8° C., and for 1 month at different stress conditions: 25° C./60% RH, 40° C./75% RH, 50° C. and 50° C./80% RH.

[3] = Mechanical stability (stress, re-analysis by PXRD)
Experimental: Sample after being powdered in a mortar and pestle is applied directly on a silicon plate holder. The X-ray powder diffraction pattern was measured with Philips X'Pert PRO X-ray powder diffractometer, equipped with Cu irradiation source=1.54184 Å (Angstrom), X'Celerator (2.022° 2θ) detector. Scanning parameters: angle range: 3-40 deg., step size 0.0167, time per step 37 s, continuous scan.

[4] = Hygroscopicity (water absorption, European Pharmacopoeia 7.0, chapter 01/2008:51100); conditions: non-hygroscopic = less than 0.2% (w/w) water absorption after 24 h exposure to 25° C./80% RH
Experimental: As used herein the term non-hygroscopic in relation to crystalline Crisaborole refers to less than 0.2% (w/w) of water absorption after 24 h exposure to 25° C./80% RH, determined according to European Pharmacopoeia 7.0, chapter 01/2008:51100. Water can be for example atmospheric water.

Solubility in solvents = test: Solubility in solvents
[5] = Thermodynamic (polymorphic) stability on storage, re-analysis by PXRD; conditions: for thermodynamic stability (conversion to any other solid state form, by XRPD): up to 50° C./80% RH
Experimental: Thermodynamic stability in relation to crystalline Crisaborole form I refers to less than 20%, 10%, 5%, 2%, 1%, or 0.5% conversion of crystalline Crisaborole form Ito any other solid state form of Crisaborole after exposure of form Ito conditions of up to 50° C./80% RH, e.g. 2-8° C., 25° C./60% RH, 40° C./75% RH for at least 1 month, as measured by XRPD. In some embodiments, the conversion is 1%-20%, 1%-10% or 1%-5%. […] Thermodynamic stability in relation to crystalline Crisaborole form II refers to less than 20%, 10%, 5%, 2%, 1%, or 0.5% conversion of crystalline Crisaborole form II to any other solid state form of Crisaborole after exposure of form II to conditions of up to 50° C./80% RH, e.g. 25° C./60% RH, 40° C./75% RH for at least 2 months, as measured by XRPD. In some embodiments, the conversion is 1%-20%, 1%-10% or 1%-5%. Sample after being powdered in a mortar and pestle is applied directly on a silicon plate holder. The X-ray powder diffraction pattern was measured with Philips X'Pert PRO X-ray powder diffractometer, equipped with Cu irradiation source=1.54184 Å (Angstrom), X'Celerator (2.022° 2θ) detector. Scanning parameters: angle range: 3-40 deg., step size 0.0167, time per step 37 s, continuous scan. Samples of Crisaborole form I were stored for 2 weeks at 25° C. 2-8° C., and for 1 month at different stress conditions: 25° C./60% RH, 40° C./75% RH, 50° C. and 50° C./80% RH.

For `N#Cc1ccc(Oc2ccc3c(c2)COB3O)cc1` [Crisaborole form I, 5-(4-Cyanophenoxy)-1,3-dihydro-1-hydroxy-2,1-benzoxaborole], the “stability at high humidity levels after milling procedure” value ([1]; after milling (feeding pressure 6.5 bar; grinding pressure 6 bar; rotation speed 300 rpm)) was “stable”, the “stability at high humidity levels” value ([1]; room temperature at 100% RH for 5-7 days) was “stable” and the chemical stability [2] was “chemically stable”. The “impurity profile after storage” value ([2]; 1 month at 25° C./60% RH) was “no change in impurity profile”, the “impurity profile after storage” value ([2]; 1 month at 40° C./75% RH) was “no change in impurity profile” and the “impurity profile after storage” value ([2]; 1 month at 50° C.) was “no change in impurity profile”. For the same compound, the “impurity profile after storage” value ([2]; 1 month at 50° C./80% RH) was “no change in impurity profile”, the “impurity profile after storage” value ([2]; 2 weeks at 2-8° C.) was “no change in impurity profile” and the “impurity profile after storage” value ([2]; 2 weeks at 25° C.) was “no change in impurity profile”. The “mechanical stability, PXRD after stress” value ([3]; pressure of 9 tons on 132.67 mm^2 for 2 min) was “unchanged”, the “mechanical stability, PXRD after stress” value ([3]; pressure of 9 tons on 132.67 mm^2 for 2 min, listed as Form I) was “resistant to mechanical stress” and the “mechanical stability, PXRD after stress” value ([3]; strong grinding using mortar and pestle for 2 min) was “unchanged”. The “mechanical stability, PXRD after stress” value ([3]; strong grinding using mortar and pestle for 2 min, listed as Form I) was “resistant to mechanical stress”, the “mechanical stability, PXRD after stress” value ([3]; strong grinding with a drop of solvent (e.g. H2O, EtOH) using mortar and pestle for 2 min) was “unchanged” and the “mechanical stability, PXRD after stress” value ([3]; strong grinding with a drop of solvent (e.g. H2O, EtOH) using mortar and pestle for 2 min, listed as Form I) was “resistant to mechanical stress”. For the same compound, the hygroscopicity [4] was “non-hygroscopic”, the “solubility in N,N-dimethylformamide” value (Solubility in solvents; N,N-dimethylformamide) was “very soluble” and the solubility in ethanol (Solubility in solvents; ethanol) was “freely soluble”. For the same compound, the solubility in isopropanol (Solubility in solvents; isopropanol) was “freely soluble”, the “solubility in propylene glycol” value (Solubility in solvents; propylene glycol) was “freely soluble” and the PXRD after storage ([5]; 1 month at 25° C./60% RH) was “unchanged”. The PXRD after storage ([5]; 1 month at 40° C./75% RH) was “unchanged”, the PXRD after storage ([5]; 1 month at 50° C.) was “unchanged” and the PXRD after storage ([5]; 1 month at 50° C./80% RH) was “unchanged”. The PXRD after storage ([5]; 2 weeks at 2-8° C.) was “unchanged”, the PXRD after storage ([5]; 2 weeks at 25° C.) was “unchanged” and the “thermodynamic stability (conversion to any other solid state form, by XRPD)” value (“thermodynamic stability” for short) ([5]; e.g. 2-8° C., 25° C./60% RH, 40° C./75% RH for at least 1 month) was “good thermodynamic stability”. The “thermodynamic stability” value ([5]; e.g. 2-8° C., 25° C./60% RH, 40° C./75% RH for at least 1 month, listed as Crystalline form I of Crisaborole) was “thermodynamically stable”.
With `N#Cc1ccc(Oc2ccc3c(c2)COB3O)cc1` [Crisaborole form II, 5-(4-Cyanophenoxy)-1,3-dihydro-1-hydroxy-2,1-benzoxaborole] the “stability to polymorphic conversions under high humidity” value ([1]; high humidity) was “stable”, the “thermodynamic stability” value ([5]; e.g. 25° C./60% RH, 40° C./75% RH for at least 2 months) was “good thermodynamic stability” and the “thermodynamic stability” value ([5]; e.g. 25° C./60% RH, 40° C./75% RH for at least 2 months, listed as Crystalline form II of Crisaborole) was “thermodynamically stable”.
